System: Adult Boophilus microplus
Assay: Topical application test on fully engorged adult Boophilus microplus ticks; overall reduction in anticipated reproduction (eggs laid and hatching)
Format: in vivo
Details: Rhipicephalus microplus, read-out: In Vitro Activity (topical application) vs. Adult Boophilus microplus % Effect; for inhibition at 0.5 µg/tick: 0.5 μg/tick; for inhibition at 1 µg/tick: 1 μg/tick; for inhibition at 2 µg/tick: 2 μg/tick; for inhibition at 4 µg/tick: 4 μg/tick; for inhibition at 8 µg/tick: 8 μg/tick; for inhibition at 10 µg/tick: 10 μg/tick
Method: In one test, five freshly collected, fully engorged Boophilus microplus adult ticks are used for each acaricidal compound. Using a micro-pipette, 10 micro-liters of a solution containing 10 micro-grams of the acaricidal compound in ethanol or acetone, is applied to the dorsal surface of each of the ticks. The treated ticks are placed in weighted 1"×2" glass vials, weighted and stored at 26° C. and 80% relative humidity in plastic boxes for two weeks. The ticks are then removed from the vials and the vials weighted to give the weight of eggs laid by the ticks. Any reduction in the egg laying of the treated ticks is caculated as a percentage of the eggs laid by untreated control ticks.
The eggs are returned to the incubator for a further 3 weeks after which time the percentage of eggs hatching is estimated.
The percentage effect is calculated as the overall reduction in the anticipated reproduction of the ticks using the weight of eggs laid and the percentage of eggs hatching.
The test may be repeated using smaller amounts of the acaricidal compound for sufficiently active compounds.
The activity of many of the compounds of the Examples detailed hereinafter against the tick Boophilus microplus has been determined.

Question: CCCCCCCCCCCCCCCC[N+]1=C2SC(C)=C(CC)N2CCC1 [Example 1, 8-cetyl-3-ethyl-2-methyl-6,7-dihydro[5H]thiazolo[3,2-a]pyrimidinium bromide] was tested. Which inhibition at 0.5 µg/tick did it give?
Answer: 24%

Question: And the inhibition at 1 µg/tick?
Answer: 59%

Question: And the inhibition at 2 µg/tick?
Answer: 99%

Question: And the inhibition at 4 µg/tick?
Answer: 100%

Question: And the inhibition at 8 µg/tick?
Answer: 100%

Question: What about the inhibition at 10 µg/tick of the same compound?
Answer: 100%

Question: How did the inhibition at 1 µg/tick turn out when CCCCCCCCCCCCCCC[N+]1=C2SC=C(c3ccccc3)N2CCC1 [Example 2] was run?
Answer: 16%

Question: And the inhibition at 2 µg/tick?
Answer: 67%

Question: What about the inhibition at 4 µg/tick of the same compound?
Answer: 77%

Question: What about the inhibition at 8 µg/tick of the same compound?
Answer: 100%

Question: And the inhibition at 10 µg/tick?
Answer: 100%

Question: With CCCCCCCCCCCCCCCC[N+]1=C2SC=C(c3ccccc3)N2CCC1 [Example 3] as the compound, how does the inhibition at 0.5 µg/tick read?
Answer: 2%

Question: What about the inhibition at 1 µg/tick of the same compound?
Answer: 13%

Question: And the inhibition at 2 µg/tick?
Answer: 26%

Question: What about the inhibition at 4 µg/tick of the same compound?
Answer: 90%

Question: What about the inhibition at 8 µg/tick of the same compound?
Answer: 97%

Question: What about the inhibition at 10 µg/tick of the same compound?
Answer: 100%

Question: With CCCCCCCCCCCCCC[N+]1=C2SC(C)=C(CC)N2CCC1 [Example 4] as the compound, how does the inhibition at 2 µg/tick read?
Answer: 12%

Question: And the inhibition at 4 µg/tick?
Answer: 75%

Question: And the inhibition at 8 µg/tick?
Answer: 100%

Question: And the inhibition at 10 µg/tick?
Answer: 83%

Question: Which inhibition at 1 µg/tick does the source give for CCCCCCCCCCCCCC[N+]1=C2SC=C(C)N2CCC1 [Example 5] here?
Answer: 0%

Question: And the inhibition at 2 µg/tick?
Answer: 4%

Question: What about the inhibition at 4 µg/tick of the same compound?
Answer: 32%

Question: And the inhibition at 8 µg/tick?
Answer: 63%

Question: And the inhibition at 10 µg/tick?
Answer: 65%

Question: How did the inhibition at 1 µg/tick turn out when CCCCCCCCCCCCCCCCC[N+]1=C2SC=C(c3ccccc3)N2CCC1 [Example 6] was run?
Answer: 7%

Question: What about the inhibition at 2 µg/tick of the same compound?
Answer: 43%

Question: And the inhibition at 4 µg/tick?
Answer: 79%

Question: What about the inhibition at 8 µg/tick of the same compound?
Answer: 98%

Question: What about the inhibition at 10 µg/tick of the same compound?
Answer: 100%

Question: For CCCCCCCCCCCCCCCC[N+]1=C2SC(C)=C(c3ccccc3)N2CCC1 [Example 7, 8-cetyl, 2-methyl-3-phenyl-6,7-dihydro[5H]thiazolo[3,2-a]pyrimidinium bromide], which inhibition at 0.5 µg/tick is on record?
Answer: 31%

Question: And the inhibition at 1 µg/tick?
Answer: 54%

Question: And the inhibition at 2 µg/tick?
Answer: 92%

Question: And the inhibition at 4 µg/tick?
Answer: 99%

Question: And the inhibition at 8 µg/tick?
Answer: 100%

Question: And the inhibition at 10 µg/tick?
Answer: 100%

Question: CCCCCCCCCCCCCCCCCC[N+]1=C2SC=C(C)N2CCC1 [Example 8] was tested. Which inhibition at 10 µg/tick did it give?
Answer: 26%

Question: For CCCCCCCCCCCCCCCCC[N+]1=C2SC=C(C)N2CCC1 [Example 9], which inhibition at 10 µg/tick is on record?
Answer: 42%

Question: With CCCCCCCCCCCCCCC[N+]1=C2SC=C(C)N2CCC1 [Example 10] as the compound, how does the inhibition at 10 µg/tick read?
Answer: 72%

Question: CCCCCCCCCCCCCCC[N+]1=C2SC(C)=C(c3ccccc3)N2CCC1 [Example 11] was tested. Which inhibition at 0.5 µg/tick did it give?
Answer: 30%

Question: What about the inhibition at 1 µg/tick of the same compound?
Answer: 36%

Question: What about the inhibition at 2 µg/tick of the same compound?
Answer: 73%

Question: And the inhibition at 4 µg/tick?
Answer: 100%

Question: What about the inhibition at 8 µg/tick of the same compound?
Answer: 100%

Question: And the inhibition at 10 µg/tick?
Answer: 100%

Question: Which results are given for CCCCCCCCCCCCCCCCCC[N+]1=C2SC(C)=C(c3ccccc3)N2CCC1 [Example 12]?
Answer: inhibition at 0.5 µg/tick: 16%; inhibition at 1 µg/tick: 19%; inhibition at 2 µg/tick: 22%; inhibition at 4 µg/tick: 38%; inhibition at 8 µg/tick: 87%; inhibition at 10 µg/tick: 100%

Question: With CCCCCCCCCCCCCC[N+]1=C2SC(C)=C(c3ccccc3)N2CCC1 [Example 13] as the compound, how does the inhibition at 0.5 µg/tick read?
Answer: 0%

Question: And the inhibition at 1 µg/tick?
Answer: 6%

Question: And the inhibition at 2 µg/tick?
Answer: 21%

Question: What about the inhibition at 4 µg/tick of the same compound?
Answer: 99.4%

Question: And the inhibition at 8 µg/tick?
Answer: 99.9%

Question: And the inhibition at 10 µg/tick?
Answer: 100%

Question: CCCCCCCCCCCCCCCCCC[N+]1=C2SC=C(c3ccccc3)N2CCC1 [Example 14] was tested. Which inhibition at 10 µg/tick did it give?
Answer: 47%

Question: How did the inhibition at 0.5 µg/tick turn out when CCCCCCCCCCCCCCCCC[N+]1=C2SC(C)=C(c3ccccc3)N2CCC1 [Example 15] was run?
Answer: 11%

Question: What about the inhibition at 1 µg/tick of the same compound?
Answer: 9%

Question: What about the inhibition at 2 µg/tick of the same compound?
Answer: 29%

Question: What about the inhibition at 4 µg/tick of the same compound?
Answer: 99.9%

Question: And the inhibition at 8 µg/tick?
Answer: 100%

Question: And the inhibition at 10 µg/tick?
Answer: 100%

Question: Which inhibition at 10 µg/tick does the source give for CCCCCCCCCCCCCCCC[N+]1=C2SC(c3ccccc3)=CN2CCC1 [Example 16] here?
Answer: 33%

Question: Which results are given for CCCCCCCCCCCCCCCC[N+]1=C2SC=C(C)N2CCC1 [Example 19]?
Answer: inhibition at 2 µg/tick: 0%; inhibition at 4 µg/tick: 9%; inhibition at 8 µg/tick: 28%; inhibition at 10 µg/tick: 49%

Question: Which results are given for CCCCCCCCCCCCCCCC[N+]1=C2SC=C(C)N2CCCC1 [Example 20, 9-cetyl-3-methyl-5,6,7,8-tetrahydro-thiazolo[3,2-a][1,3]diazepinium bromide]?
Answer: inhibition at 0.5 µg/tick: 0%; inhibition at 1 µg/tick: 29%; inhibition at 2 µg/tick: 67%; inhibition at 4 µg/tick: 99%; inhibition at 8 µg/tick: 100%; inhibition at 10 µg/tick: 100%

Question: What does the source list for CCCCCCCCCCCCCCCC[N+]1=C2SC=C(c3ccccc3)N2CCCC1 [Example 21]?
Answer: inhibition at 1 µg/tick: 0%; inhibition at 2 µg/tick: 83%; inhibition at 4 µg/tick: 98%; inhibition at 8 µg/tick: 100%; inhibition at 10 µg/tick: 100%

Question: How did the inhibition at 10 µg/tick turn out when CCCCCCCCCCCCCCCCCC[N+]1=C2SC=C(c3ccccc3)N2CCCC1 [Example 22] was run?
Answer: 57%

Question: With CCCCCCCCCCCCCCCC[N+]1=C2SC(C)=C(c3ccccc3)N2CCCC1 [Example 23, 9-hexadecyl-2-methyl-3-phenyl-5,6,7,8-tetrahydro-thiazolo[3,2-a][1,3]diazepinium bromide] as the compound, how does the inhibition at 0.5 µg/tick read?
Answer: 6%

Question: What about the inhibition at 1 µg/tick of the same compound?
Answer: 60%

Question: And the inhibition at 2 µg/tick?
Answer: 98%

Question: What about the inhibition at 4 µg/tick of the same compound?
Answer: 100%

Question: What about the inhibition at 8 µg/tick of the same compound?
Answer: 100%

Question: What about the inhibition at 10 µg/tick of the same compound?
Answer: 100%

Question: How did the inhibition at 0.5 µg/tick turn out when CCCCCCCCCCCCCCC[N+]1=C2SC=C(C)N2CCCC1 [Example 24] was run?
Answer: 13%

Question: What about the inhibition at 1 µg/tick of the same compound?
Answer: 48%

Question: And the inhibition at 2 µg/tick?
Answer: 70%

Question: What about the inhibition at 4 µg/tick of the same compound?
Answer: 97%

Question: What about the inhibition at 8 µg/tick of the same compound?
Answer: 100%

Question: And the inhibition at 10 µg/tick?
Answer: 100%

Question: How did the inhibition at 1 µg/tick turn out when CCCCCCCCCCCCCCCCCC[N+]1=C2SC=C(C)N2CCCC1 [Example 25] was run?
Answer: 20%

Question: And the inhibition at 2 µg/tick?
Answer: 40%

Question: And the inhibition at 4 µg/tick?
Answer: 82%

Question: What about the inhibition at 8 µg/tick of the same compound?
Answer: 78%

Question: And the inhibition at 10 µg/tick?
Answer: 98%

Question: Which inhibition at 0.5 µg/tick does the source give for CCCCCCCCCCCCCCC[N+]1=C2SC=C(c3ccccc3)N2CCCC1 [Example 26, 9-Pentadecyl-3-phenyl-5,6,7,8-tetrahydrothiazolo[3,2-a][1,3]diazepinium bromide] here?
Answer: 14%

Question: And the inhibition at 1 µg/tick?
Answer: 12%

Question: And the inhibition at 2 µg/tick?
Answer: 43%

Question: And the inhibition at 4 µg/tick?
Answer: 61%

Question: What about the inhibition at 8 µg/tick of the same compound?
Answer: 92%

Question: What about the inhibition at 10 µg/tick of the same compound?
Answer: 99%

Question: Which inhibition at 0.5 µg/tick does the source give for CCCCCCCCCCCCC[N+]1=C2SC=C(C)N2CCCC1 [Example 27] here?
Answer: 40%

Question: What about the inhibition at 1 µg/tick of the same compound?
Answer: 38%

Question: What about the inhibition at 2 µg/tick of the same compound?
Answer: 55%

Question: And the inhibition at 4 µg/tick?
Answer: 63%

Question: And the inhibition at 8 µg/tick?
Answer: 75%

Question: And the inhibition at 10 µg/tick?
Answer: 86%

Question: For CCCCCCCCCCCCCC[N+]1=C2SC=C(C)N2CCCC1 [Example 28], which inhibition at 1 µg/tick is on record?
Answer: 13%

Question: And the inhibition at 2 µg/tick?
Answer: 52%

Question: And the inhibition at 4 µg/tick?
Answer: 74%

Question: And the inhibition at 8 µg/tick?
Answer: 83%

Question: And the inhibition at 10 µg/tick?
Answer: 100%

Question: Which results are given for CCCCCCCCCCCCCC[N+]1=C2SC=C(c3ccccc3)N2CCCC1 [Example 29]?
Answer: inhibition at 1 µg/tick: 19%; inhibition at 2 µg/tick: 11%; inhibition at 4 µg/tick: 55%; inhibition at 8 µg/tick: 100%; inhibition at 10 µg/tick: 100%

Question: What does the source list for CCCCCCCCCCCCCCCCC[N+]1=C2SC=C(C)N2CCCC1 [Example 30]?
Answer: inhibition at 1 µg/tick: 13%; inhibition at 2 µg/tick: 47%; inhibition at 4 µg/tick: 56%; inhibition at 8 µg/tick: 95%; inhibition at 10 µg/tick: 100%

Question: Which results are given for CCCCCCCCCCCCC[N+]1=C2SC=C(c3ccccc3)N2CCCC1 [Example 31]?
Answer: inhibition at 4 µg/tick: 0%; inhibition at 8 µg/tick: 52%; inhibition at 10 µg/tick: 100%

Source: patent US4162253A, “Acaricidal agents” (Pfizer Inc., priority 1975, dated 1979)
